Measured values as given in US11185516B2 (Laboratorios Silanes S.A. DE C.V., priority 2016, dated 2021).

How the values were obtained:
AS160 = assay: In vitro AS160 phosphorylation in the presence of GPBP, AMPK and AKT; type: biochemical; details: 5 mM, with FLAG-GPBP, AKT, AMPK
Description: The reactions (25 μL) were carried out at 30° C., and stirred (350 rpm) for 15 min. Then, they were stopped with a reducing loading buffer, heated (95° C., 2 min), and analyzed using electrophoresis, electrotransfer, and autoradiography.

GPBP [1] = biological target: GPBP (Mus musculus, UniProt Q9EQG9); details: 10 mM, 3 h, FIG. 6B
Sequence of GPBP (Mus musculus, UniProt Q9EQG9) (Q9EQG9 whole entry): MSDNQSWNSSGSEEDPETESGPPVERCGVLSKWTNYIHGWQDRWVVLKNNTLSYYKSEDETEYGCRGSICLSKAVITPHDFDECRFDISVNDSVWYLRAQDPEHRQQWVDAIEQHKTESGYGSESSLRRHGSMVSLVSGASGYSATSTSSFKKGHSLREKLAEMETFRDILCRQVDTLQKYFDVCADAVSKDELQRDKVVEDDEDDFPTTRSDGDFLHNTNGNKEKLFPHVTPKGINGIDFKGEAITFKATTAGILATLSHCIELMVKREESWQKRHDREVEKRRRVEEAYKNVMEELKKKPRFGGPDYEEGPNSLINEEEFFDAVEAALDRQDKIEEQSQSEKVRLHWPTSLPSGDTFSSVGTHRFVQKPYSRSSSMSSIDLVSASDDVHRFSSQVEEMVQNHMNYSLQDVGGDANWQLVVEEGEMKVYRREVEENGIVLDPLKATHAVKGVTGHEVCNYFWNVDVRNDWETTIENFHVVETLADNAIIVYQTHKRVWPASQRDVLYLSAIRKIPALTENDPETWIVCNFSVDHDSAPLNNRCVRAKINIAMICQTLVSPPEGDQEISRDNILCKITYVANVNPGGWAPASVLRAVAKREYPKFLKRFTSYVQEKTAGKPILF
Description: The cells were lysed in a lyse buffer ([…], […], 1% Triton X-100, 1 μM phenylmethylsulphonylfluoride (PMSF) and 10 μg/mL leupeptin) for 30 min at 4° C. Lysates were centrifuged at 16000×g for 5 min at 4° C. and the total protein concentration of the supernatants determined with the Bradford reagent (Bio-Rad). The samples were analyzed by Western blot using the anti-GPBP mAb-N27 and detected with chemoluminiscence (ECL Prime, GE Healthcare).

[2] = system: proIL-1β, TNFα, iNOS, IL-6, MCP-1 and IL-12; assay: Inflammation marker expression in palmitate-stimulated L1 adipocytes (RT-qPCR); type: cell-based; details: 10 mM, palmitate 500 μM, 24 h
Description: Palmitate is a saturated fatty acid that simulates an experimental obese state. It can be used as a pro-inflammatory stimulant for cytokines such as proIL-1β, TNFα, iNOS, IL-6, MCP-1 and IL-12.
Next, the relative expression of inflammation markers was analyzed by RT and qPCR using HPRT-1 as a normalizer and the untreated cell expression levels as a reference (for MCP-1 and IL-12) or those treated palmitate. After the treatments, culture media were collected and subsequently analyzed, cells were washed with PBS, and RNA was extracted (illustra RNAspin Mini, GE Healthcare) and reverse transcribed (High Capacity cDNA Reverse Transcription Kit, Life Technologies). The expression of the genes that were the object of the study was analyzed by qPCR using specific probes (TaqMan® Gene Expression Assays, Life Technologies). The relative expression (RQ), represented in the figure, was calculated by the ΔΔCt method.

HeLa cells = details: 10 mM, 20 h
Description: After the incubation, the cells were washed with PBS, collected and washed again, then fixed with methanol:acetone (50:50) for 16 h at −20° C., and stained with 10 μg/mL of propidium iodide, 0.01 mg/mL RNase, 0.01% sodium citrate, for 20 min at 37° C. in darkness. The stained cells were analyzed by flow cytometry using a BD FACS cell sorter and BD FACSuite™ software.

GPBP [3] = biological target: T1, GPBP (Homo sapiens, UniProt Q9Y5P4)
T1 sequence (Q9Y5P4 1-624): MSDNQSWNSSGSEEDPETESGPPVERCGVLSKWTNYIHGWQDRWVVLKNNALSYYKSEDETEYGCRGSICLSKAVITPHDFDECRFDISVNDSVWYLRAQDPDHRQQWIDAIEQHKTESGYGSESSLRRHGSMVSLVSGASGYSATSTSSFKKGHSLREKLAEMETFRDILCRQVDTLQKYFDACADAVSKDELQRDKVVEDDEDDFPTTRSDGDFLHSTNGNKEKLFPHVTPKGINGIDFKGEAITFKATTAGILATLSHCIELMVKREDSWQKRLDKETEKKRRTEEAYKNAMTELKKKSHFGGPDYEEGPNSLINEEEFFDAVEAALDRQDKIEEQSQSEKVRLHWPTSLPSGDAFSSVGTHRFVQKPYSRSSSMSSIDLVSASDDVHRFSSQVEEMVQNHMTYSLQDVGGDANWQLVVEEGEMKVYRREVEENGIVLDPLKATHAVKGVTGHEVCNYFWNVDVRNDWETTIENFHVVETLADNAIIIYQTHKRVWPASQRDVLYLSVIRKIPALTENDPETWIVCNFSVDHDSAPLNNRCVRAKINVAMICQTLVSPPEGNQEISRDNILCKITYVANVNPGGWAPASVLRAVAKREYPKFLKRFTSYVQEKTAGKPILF
Description: HeLa cells, cultured in DMEM, supplemented with 10% fetal bovine serum (FBS), and penicillin/streptomycin, were treated or not (control) with SLN1 or SLN2 1 mM for 24 h. After treatment, cells were washed with PBS, collected with a cell scrapper in PBS, and centrifuged (1850g×10 min, 4° C.). Subsequently, cell precipitates were dispersed in five volumes of hypotonic solution (10 mM HEPES, pH 7.9, 1.5 mM MgCl2, 10 mM KCl, 0.2 mM PMSF, 0.5 M DTT), centrifuged (1850×g, 5 min, 4° C.), and then dispersed again in 3 volumes of hypotonic solution and stored in ice for 10 min. Cells were then lysed with a Dounce homogenizer (18 pestle movements) and centrifuged (3300×g, 15 min, 4° C.). Supernatants (cytoplasmic fraction) were put into a concentrated solution (10×) of 30 mM HEPES, pH 7.9, 140 mM KCl, 0.3 mM MgCl2, and centrifuged for 1 h at 100,000×g. Supernatants were dialyzed against 50 volumes of dialysis solution (20 mM HEPES, pH 7.9, 20% glycerol, 100 mM KCl, 0.2 mM EDTA, 0.2 mM PMSF, 0.5 M DTT), cleared (25000×g, 20 min, 4° C.), and concentrated (Microcon 10K). Then, protein concentration was determined (Bio-Rad) and samples were stored at −80° C. Similar extract quantities were analyzed via gel filtration, using a Superdex 200 column, balanced with PBS (5 GE Healthcare), and a Hitachi HPLC device, collecting fractions of 500 μL. Equivalent fraction volumes were analyzed via Western blots with anti-GPBP N27-HRP antibodies.

VAPA and VAMPs = assay: Colocalization of VAPA and VAMPs (FIG. 18)

Description for type 2 diabetes patients: The aim of this study was to determine the effect of DMMET-01 on insulin sensitivity by Glucose CLAMP technique in Mexican type 2 diabetes patients, after 2 months of treatment.
Primary Outcome Measures: Insulin sensitivity.
Secondary Outcome Measures: Insulin, fasting glucose, HbA1c, Adverse Events, Creatinine, Total Cholesterol, HDL, Triglycerides, Uric acid, AST, ALT, FA, and DHL.
60 days: 30 days, dose of 1050.6 mg per day (before dinner) and 30 days, dose 1050.6 mg twice a day 30 more days (before breakfast before dinner).
60 days: 30 days placebo once a day (before dinner)+30 days twice a day (before breakfast and before dinner).

SMILES: CN(C)C(=N)NC(=N)N [Metformin glycinate, N,N-dimethylimidodicarbonimidic diamide glycinate]
- phosphorylation of AS160 (AS160): increased
- GPBP dephosphorylation vs untreated or metformin treated cells (GPBP [1]): more GPBP dephosphorylation
- A1c level after two months treatment (type 2 diabetes patients; 1050.6 mg per day 30 days, then 1050.6 mg twice a day 30 days, p=0.008): 7.1±1.0%
- A1c level before treatment (type 2 diabetes patients; DMMET01 group, baseline): 8.1±0.8%
- reduction of the A1c level (type 2 diabetes patients; after two months treatment): more than 1%
- sensitivity to insulin (Glucose CLAMP) (type 2 diabetes patients; after two months treatment): did not change
- adverse events vs placebo (type 2 diabetes patients; two months treatment): No statistically significant difference in adverse events
- anti-inflammatory effectiveness, comparison of the two salts [2]: significantly more effective than metformin hydrochloride
- inflammatory response of palmitate-stimulated adipocytes [2]: attenuated the inflammatory response
- cancer cells entering G1 phase cell cycle arrest (HeLa cells): about 56%
- high molecular weight GPBP aggregates (GPBP [3]; 1 mM, 24 h): high molecular weight aggregates formed
- GPBP-LKB1 aggregates (GPBP [3]; FIG. 14): dissociates GPBP-LKB1 aggregates
- colocalization of VAPA and VAMPS (VAPA and VAMPs): reduced colocalization
